# From ChEMBL document CHEMBL5034040, “Amide-to-Ester Substitution as a Strategy for Optimizing PROTAC Permeability and Cellular Activity” (J Med Chem, 2021)
# Assay: Permeability of the compound in PBS at pH 7.4 after 16 hrs by PAMPA
# Type: ADME
# Conditions: read-out: Peff
row,Structure (SMILES),Papp at 16 h [×10⁻⁶ cm/s]
1,Cc1ncsc1-c1ccc([C@H](C)NC(=O)[C@@H]2C[C@@H](O)CN2C(=O)[C@@H](NC(=O)COCCCOCCNC(=O)C[C@@H]2N=C(c3ccc(Cl)cc3)c3c(sc(C)c3C)-n3c(C)nnc32)C(C)(C)C)cc1,0.2
2,Cc1ncsc1-c1ccc(CNC(=O)[C@@H]2C[C@@H](O)CN2C(=O)[C@@H](NC(=O)COCCOCCOCCNC(=O)C[C@@H]2N=C(c3ccc(Cl)cc3)c3c(sc(C)c3C)-n3c(C)nnc32)C(C)(C)C)cc1,0.01
